Measured values published in patent publication US12565511B2, “SOS1 inhibitor containing phosphorus” (Chia Tai Tianqing Pharmaceutical Group Co., Ltd., priority 2020, dated 2026).

What was measured:
[1] = tested on: K562 cells; experiment: Assay for proliferation inhibitory activity of K562 cells; type: cell-based; details: Homo sapiens, 72 h, CCK-8, read-out: K562 cell proliferation inhibition IC50
Experimental: Test Example 4 Assay for Proliferation Inhibitory Activity of K562 Cells
The K562 cell line can be purchased from the American Type Culture Collection (ATCC).
The K562 cells in a good growth state were added to a centrifuge tube with the cell density adjusted to 3×10^4/mL, and seeded on a 96-well plate (100 μL/well). The cells were cultured overnight in a cell incubator, the compound was loaded using a nanoliter pipettor to allow the final compound concentration to be 10000 nM to 4.6 nM, 2 replicate wells were set and control was set.

[2] = molecular target: T1, SOS1cat / KRAS G12C (Homo sapiens, UniProt Q07889); experiment: Guanine nucleotide exchange test (HTRF); type: biochemical; details: SOS1cat-mediated loading of EDA-GTP-DY-647P1 on His-KRAS G12C, 20° C.; read-out: Nucleotide conversion of HTRF IC50
T1 sequence (Q07889 564-1049): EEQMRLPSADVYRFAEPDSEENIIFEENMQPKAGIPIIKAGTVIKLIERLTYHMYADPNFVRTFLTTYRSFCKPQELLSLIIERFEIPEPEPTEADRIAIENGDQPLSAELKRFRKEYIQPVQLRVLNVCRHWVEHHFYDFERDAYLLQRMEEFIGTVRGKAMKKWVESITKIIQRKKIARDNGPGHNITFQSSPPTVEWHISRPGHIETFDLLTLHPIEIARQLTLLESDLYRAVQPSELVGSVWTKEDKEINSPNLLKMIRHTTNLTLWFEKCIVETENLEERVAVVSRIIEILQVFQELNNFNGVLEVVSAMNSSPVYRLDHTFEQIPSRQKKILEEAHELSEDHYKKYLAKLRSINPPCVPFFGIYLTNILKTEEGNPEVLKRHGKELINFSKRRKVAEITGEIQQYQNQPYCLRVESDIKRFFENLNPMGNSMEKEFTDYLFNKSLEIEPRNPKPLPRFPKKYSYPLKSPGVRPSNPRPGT
Experimental: Test Example 2 Guanine Nucleotide Exchange Test
This test quantitatively investigates the ability of SOS to mediate KRAS activation. KRAS G12C with a His tag was added to the system, anti-His antibody labeled with lanthanide Eu was combined with the system, then auxiliary protein SOS1cat and GTP analogue EDA-GTP-DY-647P1 with fluorophore were added thereto, the GTP analogue with fluorophore was loaded on KRAS G12C with the assistance of the auxiliary protein, and then energy resonance transfer occurred between Anti-6HS-Cryptate (FRET donor) and EDA-GTP-DY-647P1 (FRET acceptor).
However, after pretreatment with SOS1 inhibitor compounds, the ability of SOS1 to bind and mediate KRAS activation was weakened, and the ability of FRET between donor and acceptor was weakened.
Test buffer was prepared with the following components: HEPES pH 7.4: 20 mM; NaCl: 150 mM; MgCl2: 0.5 mM; DTT: 2 mM; BSA: 0.05%; and Igepal: 0.0025%.
KRAS G12C working solution, SOS1cat working solution and blank control solution were prepared with the test buffers; wherein the KRAS G12C working solution contained 100 nM His-KRAS G12C and 2 nM […]; the SOS1cat working solution contained 20 nM SOS1cat and 200 nM EDA-GTP-DY-647P1; and the blank control solution contained 100 nM EDA-GTP-DY-647P1.
The whole test procedures were completed at 20° C.

[3] = molecular target: T2, KRAS-G12C/SOS1 (Homo sapiens, UniProt Q07889); experiment: biochemical
T2 sequence (Q07889 564-1049): T1 sequence (Q07889 564-1049)

Compound: Cc1nc(N[C@H](C)c2cc(N)cc(C(F)(F)F)c2C)c2cc(P3(=O)CCN(C(=O)C4(F)CC4)CC3)ncc2n1 [Example 59]
- IC50 [1]: 21 nM
- IC50 [2]: 448 nM

Compound: CC(=O)N1CCP(=O)(c2ccc3nc(CF)nc(N[C@H](C)c4cccc(C(F)F)c4F)c3c2)CC1 [Example 31]
- IC50 [1]: 513 nM
- IC50 [3]: 129 nM

Compound: COC(=O)N1CCP(=O)(c2cc3c(N[C@H](C)c4cccc(C(F)F)c4F)nc(C)nc3cn2)CC1 [Example 53]
- IC50 [1]: 93 nM
- IC50 [2]: 504 nM

Compound: Cc1nc(N[C@H](CF)c2cccc(C(F)(F)F)c2C)c2cc(P3(=O)CCN(S(C)(=O)=O)CC3)ccc2n1 [Example 26]
- IC50 [3]: 103 nM

Compound: CC(=O)N1CCP(=O)(c2cc3c(N[C@H](C)c4cccc(C(F)F)c4F)nc(CF)nc3cc2F)CC1 [Example 32]
- IC50 [1]: 155 nM
- IC50 [3]: 90 nM

Compound: [2H]C([2H])([2H])Oc1cc2nc(C)nc(N[C@H](C)c3cc(N)cc(C(F)(F)F)c3)c2cc1P(C)(C)=O [Example 47]
- IC50 [1]: 440 nM
- IC50 [2]: 573 nM

Compound: Cc1nc(N[C@H](C)c2cccc(C(F)F)c2F)c2cc(P3(=O)CCOCC3)ccc2n1 [Example 36]
- IC50 [1]: 346 nM
- IC50 [3]: 94 nM

Compound: Cc1nc(N[C@H](C)c2cccc(C(C)(F)F)c2F)c2cc(P3(=O)CCN(S(C)(=O)=O)CC3)ncc2n1 [Example 23]
- IC50 [1]: 118 nM
- IC50 [2]: 283 nM

Compound: COc1cc2nc(CF)nc(N[C@H](C)c3cccc(C(F)F)c3F)c2cc1P1(=O)CCN(C(C)=O)CC1 [Example 30]
- IC50 [1]: 302 nM
- IC50 [3]: 68 nM

Compound: Cc1nc(N[C@H](C)c2cccc(C(F)F)c2F)c2cc(P3(=O)CCN(C4COC4)CC3)ncc2n1 [Example 51]
- IC50 [1]: 282 nM
- IC50 [3]: 100 nM

Compound: Cc1nc(N[C@H](C)c2cccc(C(F)(F)F)c2F)c2cc(P3(=O)CCOCC3)ccc2n1 [Example 37]
- IC50 [1]: 362 nM
- IC50 [3]: 97 nM

Compound: Cc1nc(N[C@H](C)c2cc(N)cc(C(F)(F)F)c2)c2cc(P(C)(C)=O)c(OCF)cc2n1 [Example 46]
- IC50 [1]: 491 nM
- IC50 [2]: 498 nM

Compound: COCCN1CCP(=O)(c2cc3c(N[C@H](C)c4cccc(C(F)(F)F)c4)nc(C)nc3cn2)CC1 [Example 48]
- IC50 [1]: 1570 nM
- IC50 [2]: 895 nM

Compound: [2H]C(C)(Nc1nc(C)nc2cnc(P3(=O)CCN(S(C)(=O)=O)CC3)cc12)c1cccc(C(F)(F)F)c1F (stereo not drawn) [Example 25]
- IC50 [1]: 247 nM
- IC50 [3]: 86 nM

Compound: CC(=O)N1CCP(=O)(c2ccc3nc(Cl)nc(N[C@H](C)c4cccc(C(F)F)c4F)c3c2)CC1 [Example 33]
- IC50 [1]: 250 nM
- IC50 [3]: 64 nM

Compound: Cc1nc(N[C@H](C)c2cccc(C(C)(F)F)c2F)c2cc(P3(=O)CCN(CC4CC4)CC3)ncc2n1 [Example 50]
- IC50 [1]: 334 nM
- IC50 [2]: 456 nM

Compound: Cc1nc(N[C@H](C)c2cccc(C(F)F)c2F)c2cc(P3(=O)CCN(CC#N)CC3)ccc2n1 [Example 56]
- IC50 [1]: 507 nM
- IC50 [3]: 88 nM

Compound: COc1cc2nc(C)nc(N[C@H](C)c3cccc(C(F)(F)F)c3C)c2cc1P1(=O)CCOCC1 [Example 67]
- IC50 [1]: 264 nM
- IC50 [3]: 71 nM

Compound: COc1cc2nc(C)nc(N[C@H](C)c3cccc(C(F)(F)CO)c3)c2cc1P1(=O)CCOCC1 [Example 70]
- IC50 [1]: 257 nM
- IC50 [3]: 44 nM

Compound: Cc1nc(N[C@H](C)c2cc(N)cc(C(F)(F)F)c2C)c2cc(P3(=O)CCN(C(=O)C(C)(C)F)CC3)ncc2n1 [Example 60]
- IC50 [1]: 30 nM
- IC50 [2]: 433 nM

Compound: COc1cc2ncnc(N[C@H](C)c3cccc(C(F)F)c3F)c2cc1P1(=O)CCN(S(C)(=O)=O)CC1 [Example 29]
- IC50 [1]: 320 nM
- IC50 [3]: 63 nM

Compound: Cc1nc(N[C@H](C)c2cccc3c2OCC3(F)F)c2cc(P3(=O)CCN(S(C)(=O)=O)CC3)ncc2n1 [Example 22]
- IC50 [1]: 836 nM
- IC50 [3]: 63 nM

Compound: Cc1nc(N[C@H](C)c2cccc(C(F)(F)F)c2C)c2cc(P3(=O)CCN(S(C)(=O)=O)CC3)ccc2n1 [Example 62]
- IC50 [1]: 155 nM
- IC50 [3]: 45 nM

Compound: COc1cc2nc(C)nc(N[C@H](C)c3cccc(C(F)(F)C(C)(C)O)c3)c2cc1P1(=O)CCOCC1 [Example 71]
- IC50 [1]: 139 nM
- IC50 [3]: 35 nM

Compound: Cc1nc(N[C@H](C)c2cc(N)cc(C(F)(F)F)c2)c2cc(P(C)(C)=O)c(OC(F)F)cc2n1 [Example 45]
- IC50 [1]: 1080 nM
- IC50 [2]: 694 nM

Compound: Cc1nc(N[C@H](C)c2cc(N)cc(C(F)(F)F)c2)c2cc(P(C)(C)=O)c(O)cc2n1 [Example 44]
- IC50 [2]: 724 nM

Compound: Cc1nc(N[C@H](C)c2cc(N)cc(C(F)(F)F)c2C)c2cc(P3(=O)CCN(C(=O)C(C)C)CC3)ncc2n1 [Example 58]
- IC50 [1]: 31 nM
- IC50 [2]: 433 nM

Compound: Cc1nc(N[C@H](C)c2cccc(C(F)(F)F)c2F)c2cc(P3(=O)CCOCC3)nc(C#N)c2n1 [Example 41]
- IC50 [1]: 570 nM
- IC50 [3]: 180 nM

Compound: Cc1nc(N[C@H](C)c2cccc(C(F)(F)F)c2C)c2cc(P3(=O)CCOCC3)c(=O)n(C)c2n1 [Example 40]
- IC50 [1]: 514 nM
- IC50 [3]: 179 nM

Compound: CCP(=O)(CC)c1cc2c(N[C@H](C)c3cccc(C(F)F)c3F)nc(C)nc2cc1OC [Example 34]
- IC50 [3]: 612 nM

Compound: Cc1nc(N[C@H](C)c2cccc(C(F)F)c2F)c2cc(P3(=O)CCOCC3)ncc2n1 [Example 35]
- IC50 [1]: 574 nM
- IC50 [3]: 156 nM

Compound: COc1cc2nc(C)nc(N[C@H](C)c3cccc(C(F)F)c3C)c2cc1P1(=O)CCOCC1 [Example 66]
- IC50 [1]: 271 nM
- IC50 [3]: 79 nM

Compound: Cc1nc(N[C@H](C)c2cccc(C(F)F)c2F)c2cc(P3(=O)CCOCC3)cc(F)c2n1 [Example 39]
- IC50 [1]: 561 nM
- IC50 [3]: 103 nM

Compound: COc1cc2ncnc(N[C@H](C)c3cccc(C(F)F)c3F)c2cc1P1(=O)CCN(C(C)=O)CC1 [Example 28]
- IC50 [1]: 239 nM
- IC50 [3]: 50 nM

Compound: C[C@@H](Nc1nc(CF)nc2cnc(P3(=O)CCN(S(C)(=O)=O)CC3)cc12)c1cccc(C(F)(F)F)c1F [Example 24]
- IC50 [1]: 177 nM

Compound: Cc1nc(N[C@H](C)c2cccc(C(F)F)c2F)c2cc(P3(=O)CCN(CC(=O)N(C)C)CC3)ccc2n1 [Example 57]
- IC50 [1]: 2170 nM
- IC50 [3]: 204 nM

Compound: COc1cc2nc(C)nc(N[C@H](C)c3cccc(C(F)F)c3F)c2cc1P1(=O)CCN(S(C)(=O)=O)CC1 [Example 63]
- IC50 [1]: 137 nM
- IC50 [3]: 38 nM

Compound: C[C@@H](Nc1ncnc2cnc(P3(=O)CCN(S(C)(=O)=O)CC3)cc12)c1cccc(C(C)(F)F)c1F [Example 64]
- IC50 [1]: 281 nM
- IC50 [3]: 64 nM

Compound: Cc1nc(N[C@H](C)c2cccc(C(F)(F)F)c2F)c2cc(P3(=O)CCN(S(C)(=O)=O)CC3)ncc2n1 [Example 19]
- IC50 [1]: 206 nM
- IC50 [3]: 41 nM

Compound: COc1cc2nc(C)nc(N[C@H](C)c3cccc(C(C)(F)F)c3F)c2cc1P1(=O)CCOCC1 [Example 69]
- IC50 [1]: 310 nM
- IC50 [3]: 49 nM

Compound: COc1cc2nc(C)nc(N[C@H](C)c3cccc(C(F)(F)F)c3F)c2cc1P1(=O)CCOCC1 [Example 68]
- IC50 [1]: 720 nM
- IC50 [3]: 90 nM

Compound: Cc1nc(N[C@H](C)c2cccc(C(F)F)c2F)c2cc(P3(=O)CCN(C(=O)N(C)C)CC3)ncc2n1 [Example 55]
- IC50 [1]: 280 nM
- IC50 [3]: 87 nM

Compound: Cc1nc(N[C@H](C)c2cccc3c(F)coc23)c2cc(P3(=O)CCN(S(C)(=O)=O)CC3)ccc2n1 [Example 61]
- IC50 [1]: 421 nM
- IC50 [3]: 63 nM

Compound: Cc1nc(N[C@H](C)c2cccc(C(F)F)c2F)c2cc(P3(=O)CCOCC3)c(F)cc2n1 [Example 38]
- IC50 [1]: 477 nM
- IC50 [3]: 115 nM
